Earlier results in patent US9169190B2, “Methods for making retinoids and uses thereof” (The UAB Research Foundation, priority 2004, dated 2015).

Key:
[1] = tested on: MNU-induced mammary cancers; details: added to the diet of rats
mammary cancers = details: compared with 9cRA
[2] = tested on: juvenile myelomonocytic leukemia (JMML); details: children with JMML
[3] = tested on: acute promyelocytic leukemia (APL); details: patients with APL

CC1=C(/C=C/C(C)=C\C=C\C(C)=C\C(=O)O)C(C)(C)CCC1 [9cRA]
reduction of the number of MNU-induced mammary cancers [1]: 92%

CC(=C/C=C/C(C)=C/C(=O)O)/C=C1\CCCc2ccccc21 [9cUAB30]
chemopreventive efficacy of mammary cancers relative to 9cRA (mammary cancers): comparable | toxicity relative to 9cRA (mammary cancers): less toxic

CC1=C(/C=C/C(C)=C/C=C/C(C)=C\C(=O)O)C(C)(C)CCC1 [(13Z)-RA]
children in whom excessive myeloproliferation is effectively controlled [2]: up to 50%

CC1=C(/C=C/C(C)=C/C=C/C(C)=C/C(=O)O)C(C)(C)CCC1 [(all-E)-RA, All-trans-retinoic acid]
complete remission rate [3]: 90%
